The test addresses hPAD4 enzyme (Homo sapiens (Human), UniProt Q9UM07). Nature of the test: RFMS2 assay (RapidFire mass spectrometry, TSTGGRQGSHH peptide substrate). Format: biochemical. The note with it: 35 nM recombinant human PAD4, 500 μM TSTGGRQGSHH peptide, 30 minutes at room temperature; read-out: RFMS 2 IC50. A digest of the protocol:
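IC50 derived from RapidFire LC-MS/MS (positive ESI MRM) of substrate versus product after a 30 min room-temperature reaction stopped with 10% formic acid. Reaction contained 35 nM human PAD4, 500 μM peptide, 2 mM CaCl2, 5 mM DTT at pH 7.4, and compounds diluted 3-fold from 20 μM.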

Drawing on patent US20250346592A1 (Celgene Corporation, priority 2022, published 2025), this text covers IC50 for 9 compounds.

The structures appear in SMILES notation.

Chain of hPAD4 enzyme (Q9UM07 whole entry): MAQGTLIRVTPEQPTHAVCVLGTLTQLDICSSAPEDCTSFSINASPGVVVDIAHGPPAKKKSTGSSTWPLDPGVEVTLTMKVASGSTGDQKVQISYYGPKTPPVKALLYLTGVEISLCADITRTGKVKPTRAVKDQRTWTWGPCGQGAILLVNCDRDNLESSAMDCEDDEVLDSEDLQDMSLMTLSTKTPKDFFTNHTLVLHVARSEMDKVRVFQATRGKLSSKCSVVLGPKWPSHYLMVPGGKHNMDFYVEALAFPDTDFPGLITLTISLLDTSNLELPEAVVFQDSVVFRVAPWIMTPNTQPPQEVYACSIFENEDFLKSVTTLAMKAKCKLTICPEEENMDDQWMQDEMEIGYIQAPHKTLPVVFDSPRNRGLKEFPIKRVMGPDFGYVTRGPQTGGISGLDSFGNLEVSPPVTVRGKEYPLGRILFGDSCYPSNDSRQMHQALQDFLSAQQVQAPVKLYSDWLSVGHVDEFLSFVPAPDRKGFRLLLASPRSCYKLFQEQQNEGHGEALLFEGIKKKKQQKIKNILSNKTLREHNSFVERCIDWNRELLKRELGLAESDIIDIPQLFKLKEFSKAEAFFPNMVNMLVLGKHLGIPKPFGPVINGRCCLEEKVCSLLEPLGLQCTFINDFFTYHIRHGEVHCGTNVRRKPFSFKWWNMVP

With `Cn1c(-c2cc3cccc(OCc4nnco4)c3n2CC2CC2)nc2cc3c(cc21)CCN(C[C@H](N)CF)C3=O` [Example 176, (S)-2-(7-((1,3,4-oxadiazol-2-yl)methoxy)-1-(cyclopropylmethyl)-1H-indol-2-yl)-6-(2-amino-3-fluoropropyl)-1-methyl-1,6,7,8-tetrahydro-5H-imidazo[4,5-g]isoquinolin-5-one], the IC50 lay within 101 to 500 nM.

`Cc1nnc(COc2cccc3cc(-c4nc5cc6c(cc5n4C)CCN(C[C@H](N)CF)C6=O)n(CC4CC4)c23)o1` [Example 177, (S)-6-(2-amino-3-fluoropropyl)-2-(1-(cyclopropyl-methyl)-7-((5-methyl-1,3,4-oxadiazol-2-yl)methoxy)-1H-indol-2-yl)-1-methyl-1,6,7,8-tetrahydro-5H-imidazo[4,5-g]isoquinolin-5-one]: the IC50 was 101 to 500 nM.

With `Cn1c(-c2cc3cccc(OCCn4cccc4)c3n2CC2CC2)nc2cc3c(cc21)CCN(C[C@H](N)CF)C3=O` [Example 180, (S)-2-(7-(2-(1H-pyrrol-1-yl)ethoxy)-1-(cyclopropyl-methyl)-1H-indol-2-yl)-6-(2-amino-3-fluoropropyl)-1-methyl-1,6,7,8-tetrahydro-5H-imidazo[4,5-g] isoquinolin-5-one], the IC50 lay in the range of 101 to 500 nM.

As to `Cc1nncn1CCOc1cccc2cc(-c3nc4cc5c(cc4n3C)CCN(C[C@H](N)CF)C5=O)n(CC3CC3)c12` [Example 182, (S)-6-(2-amino-3-fluoropropyl)-2-(1-(cyclopropylmethyl)-7-(2-(3-methyl-4H-1,2,4-triazol-4-yl)ethoxy)-1H-indol-2-yl)-1-methyl-1,6,7,8-tetrahydro-5H-imidazo[4,5-g]isoquinolin-5-one], the IC50 was 101 to 500 nM.

As to `Cn1c(-c2cc3cccc(OCc4cccnn4)c3n2CC2CC2)nc2cc3c(cc21)CCN(C[C@H](N)CF)C3=O` [Example 183, (S)-6-(2-amino-3-fluoropropyl)-2-(1-(cyclopropylmethyl)-7-(pyridazin-3-ylmethoxy)-1H-indol-2-yl)-1-methyl-1,6,7,8-tetrahydro-5H-imidazo[4,5-g]isoquinolin-5-one], the IC50 lay in the range of 101 to 500 nM.

With `Cn1c(-c2cc3cccc(OCC4CC(F)(F)C(=O)N4)c3n2CC2CC2)nc2cc3c(cc21)CCN(C[C@H](N)CF)C3=O` (stereo partly drawn) [Example 185, 6-((S)-2-amino-3-fluoropropyl)-2-(1-(cyclopropylmethyl)-7-((4,4-difluoro-5-oxopyrrolidin-2-yl)methoxy)-1H-indol-2-yl)-1-methyl-1,6,7,8-tetrahydro-5H-imidazo[4,5-g]isoquinolin-5-one], the IC50 lay within 101 to 500 nM.

Take `Cn1c(-c2cc3cccc(OC[C@@H]4COCCN4)c3n2CC2CC2)nc2cc3c(cc21)CCN(C[C@H](N)CF)C3=O` [Example 187, 6-((S)-2-amino-3-fluoropropyl)-2-(1-(cyclopropylmethyl)-7-(((S)-morpholin-3-yl)methoxy)-1H-indol-2-yl)-1-methyl-1,6,7,8-tetrahydro-5H-imidazo[4,5-g]isoquinolin-5-one]: the IC50 was greater than 1000 nM.

In the case of `Cn1c(-c2cc3cccc(OC[C@H]4COCCN4)c3n2CC2CC2)nc2cc3c(cc21)CCN(C[C@H](N)CF)C3=O` [Example 188, 6-((S)-2-amino-3-fluoropropyl)-2-(1-(cyclopropylmethyl)-7-(((R)-morpholin-3-yl)methoxy)-1H-indol-2-yl)-1-methyl-1,6,7,8-tetrahydro-5H-imidazo[4,5-g]isoquinolin-5-one], the IC50 lay within 501 to 1000 nM.

As for `Cn1c(-c2cc3cccc(OCc4cocn4)c3n2CC2CC2)nc2cc3c(cc21)CCN(C[C@H](N)CF)C3=O` [Example 189, (S)-6-(2-amino-3-fluoropropyl)-2-(1-(cyclopropylmethyl)-7-(oxazol-4-ylmethoxy)-1H-indol-2-yl)-1-methyl-1,6,7,8-tetrahydro-5H-imidazo[4,5-g]isoquinolin-5-one], the 50% inhibitory concentration (IC50) is 101 to 500 nM.

For orientation: IC50 means the midpoint of a concentration-inhibition curve.
